Laboratory results published in patent publication US9302999B2, “Substituted triazoles as herbicides” (E. I. DU PONT DE NEMOURS AND COMPANY, priority 2012, dated 2016).
Like-named read-outs stand apart in the source and are kept apart here.

Columns and labels:
Format in all cases: in vivo
[1] = system: foxtail, giant (giant foxtail, Setaria faberii); experiment: Test A pre-/postemergence: foxtail, giant; conditions: for pest or weed control at 125 g/ha / pest or weed control at 500 g/ha: Setaria faberi, 240 h
Summary of the method: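 Whole-plant greenhouse assay in loam/sand. Preemergence directed soil spray plus simultaneous postemergence spray (one- to two-leaf stage, 2–10 cm). Rated visually ~10 days later, 0 = no effect, 100 = complete control.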

[2] = system: chickweed (common chickweed, Stellaria media); experiment: Test C postemergence: chickweed
Description: (§1) At the same time, plants selected from these crop and weed species and also barley (winter barley, Hordeum vulgare), canarygrass (Phalaris minor), chickweed (common chickweed, Stellaria media) windgrass (Apera spica-venti) and deadnettle (henbit deadnettle, Lamium amplexicaule) were planted in pots containing Redi-Earth® planting medium (Scotts Company, 14111 Scottslawn Road, Marysville, Ohio 43041) comprising spaghnum peat moss, vermiculite, wetting agent and starter nutrients and treated with postemergence applications of test chemicals formulated in the same manner. Plants ranged in height from 2 to 18 cm (1- to 4-leaf stage) for postemergence treatments.
(§2) Treated plants and controls were maintained in a greenhouse for 13 to 15 days, after which time all species were compared to controls and visually evaluated. Plant response ratings, summarized in Table C, are based on a scale of 0 to 100 where 0 is no effect and 100 is complete control. A dash (-) response means no test result.

[3] = system: morningglory (Ipomoea coccinea); experiment: Test C pre-/postemergence: morningglory
Description: Seeds of plant species selected from blackgrass (Alopecurus myosuroides), bromegrass, downy (downy bromegrass, Bromus tectorum), foxtail, green (green foxtail, Setaria viridis), ryegrass, Italian (Italian ryegrass, Lolium multiflorum), winter wheat (Triticum aestivum), wild oat (Avena fatua), galium (catchweed bedstraw, Galium aparine), bermudagrass (Cynodon dactylon), surinam grass (Brachiaria decumbens), cocklebur (common cocklebur, Xanthium strumarium), corn (Zea mays), large crabgrass (Digitaria sanguinalis), woolly cupgrass (Eriochloa villosa), foxtail, giant (giant foxtail, Setaria faberii), goosegrass (Eleusine indica), johnsongrass (Sorghum halepense), kochia (Kochia scoparia), lambsquarters (Chenopodium album), morningglory (Ipomoea coccinea), nightshade (eastern black nightshade, Solanum ptycanthum), nutsedge, yellow (yellow nutsedge, Cyperus esculentus), pigweed (Amaranthus retroflexus), ragweed (common ragweed, Ambrosia elation), soybean (Glycine max), common (oilseed) sunflower (Helianthus annuus), Russian thistle (Salsola kali) and velvetleaf (Abutilon theophrasti) were planted into a blend of loam soil and sand and treated preemergence with test chemicals formulated in a non-phytotoxic solvent mixture which included a surfactant.
as §1, §2

[4] = post-emergence, Postemergence, 125 g ai/ha, 0 to 100 scale, 0 is no effect, 100 is complete control, read-out: Foxtail, Giant plant response rating
[5] = post-emergence, Postemergence, 500 g ai/ha, visual rating on 0 to 100 scale (0 no effect, 100 complete control), approximately ten days, read-out: Foxtail, Giant plant response rating
[6] = 31 g ai/ha, scale 0 to 100 (0 no effect, 100 complete control)
[7] = 62 g ai/ha, scale 0 to 100 (0 no effect, 100 complete control)
[8] = 125 g ai/ha, scale 0 to 100, 0 no effect, 100 complete control
[9] = Postemergence, 31 g ai/ha, scale 0 to 100 (0 no effect, 100 complete control)
[10] = Postemergence, 62 g ai/ha, scale 0 to 100 (0 no effect, 100 complete control)
[11] = Postemergence, 125 g ai/ha, scale 0 to 100, 0 no effect, 100 complete control
[12] = Postemergence, 125 g ai/ha, 0 to 100 scale, 0 is no effect, 100 is complete control
[13] = Postemergence, 500 g ai/ha, visual rating on 0 to 100 scale (0 no effect, 100 complete control), approximately ten days
[14] = Preemergence, 125 g ai/ha, 0 to 100 scale where 0 is no effect and 100 is complete control
[15] = Preemergence, 500 g ai/ha, 0 to 100 scale (0 no effect, 100 complete control)
[16] = Postemergence, 250 g ai/ha, scale 0 to 100
[17] = Preemergence, 31 g ai/ha, scale of 0 to 100, 0 is no effect, 100 is complete control
[18] = Preemergence, 62 g ai/ha, scale of 0 to 100, 0 is no effect, 100 is complete control
[19] = Preemergence, 125 g ai/ha, scale 0 to 100, 0 no effect, 100 complete control
[20] = Preemergence, 250 g ai/ha, scale 0 to 100, 0 no effect, 100 complete control
[21] = Postemergence, 500 g ai/ha, 0 to 100 scale, 0 is no effect, 100 is complete control
[22] = Preemergence, 31 g ai/ha, scale 0 (no effect) to 100 (complete control)

| SMILES | Plant response rating, Chickweed [2, 6] | Plant response rating, Chickweed [2, 7] | Plant response rating, Chickweed [2, 8] | Plant response rating, Morningglory [3, 9] | Plant response rating, Morningglory [3, 10] | Plant response rating, Morningglory [3, 11] | Plant response rating, Foxtail, Giant [1, 12] | Plant response rating, Foxtail, Giant [1, 14] | Plant response rating, Foxtail, Giant [1, 15] | Plant response rating, Chickweed ([2]; 250 g ai/ha, scale 0 to 100) | Plant response rating, Morningglory [3, 18] | Plant response rating, Morningglory [3, 19] | Plant response rating, Morningglory [3, 20] | Foxtail, Giant plant response rating [1, 21] | other results |
| --- | --- | --- | --- | --- | --- | --- | --- | --- | --- | --- | --- | --- | --- | --- | --- |
| COc1nn(-c2ccc(C(F)(F)F)cc2)nc1Cn1ccc(C(F)(F)F)n1 [Compound 17, 4-methoxy-2-[4-(trifluoromethyl)phenyl]-5-[[3-(trifluoromethyl)-1H-pyrazol-1-yl]methyl]-2H-1,2,3-triazole] |  |  |  |  |  |  |  |  |  |  |  |  |  |  | pest or weed control at 125 g/ha [1, 4]: 60%; pest or weed control at 500 g/ha [1, 5]: 80%; pest or weed control at 125 g/ha ([1]; pre-emergence, Preemergence, 125 g ai/ha, 0 to 100 scale (0 no effect, 100 complete control), read-out: Plant response rating, Foxtail, Giant): 90%; pest or weed control at 500 g/ha ([1]; pre-emergence, Preemergence, 500 g ai/ha, 0 to 100 scale, 0 is no effect, 100 is complete control, read-out: Plant response rating, Foxtail, Giant): 100% |
| Cc1nn(-c2ccc(C(F)(F)F)cc2)nc1Cc1cccc(C(F)(F)F)c1 [Compound 124] | 50 | 55 | 55 | 15 | 40 | 40 |  |  |  |  |  |  |  |  | Foxtail, Giant plant response rating ([1]; Postemergence, 1000 g ai/ha, visual rating on 0 to 100 scale (0 no effect, 100 complete control), approximately ten days): 90; Foxtail, Giant plant response rating ([1]; Preemergence, 1000 g ai/ha, 0 to 100 scale, 0 is no effect, 100 is complete control): 100; Plant response rating, Chickweed ([2]; 16 g ai/ha, scale 0 to 100, 0 no effect, 100 complete control): 45; Plant response rating, Morningglory ([3]; Postemergence, 16 g ai/ha, scale 0 to 100, 0 no effect, 100 complete control): 15 |
| CCc1nn(-c2ccc(C(F)(F)F)cc2)nc1Oc1cccc(OC(F)(F)F)c1 [Compound 125, 4-ethyl-5-[3-(trifluoromethoxy)phenoxy]-2-[4-(trifluoromethyl)phenyl]-2H-1,2,3-triazole] |  |  |  |  |  |  |  |  |  |  |  |  |  |  | pest or weed control at 125 g/ha [1, 4]: 50%; pest or weed control at 500 g/ha [1, 5]: 60%; pest or weed control at 125 g/ha ([1]; pre-emergence, Preemergence, 125 g ai/ha, 0 to 100 scale where 0 is no effect and 100 is complete control, read-out: Plant response rating, Foxtail, Giant): 80%; pest or weed control at 500 g/ha ([1]; pre-emergence, Preemergence, 500 g ai/ha, 0 to 100 scale (0 no effect, 100 complete control), read-out: Plant response rating, Foxtail, Giant): 90% |
| CCCc1nn(-c2ccc(F)cc2)nc1Cc1ccnc(C(F)(F)F)c1 [Compound 153] | 95 | 95 | 95 | 40 | 80 | 95 | 90 | 100 | 100 | 95 | 30 | 50 | 50 |  | Foxtail, Giant plant response rating [1, 13]: 100; Plant response rating, Morningglory [3, 16]: 95; Plant response rating, Morningglory [3, 17]: 20 |
| Cc1nn(-c2ccc(C(F)(F)F)c(F)c2)nc1Cc1ccnc(C(F)(F)F)c1 [Compound 162] | 100 | 100 | 100 |  |  |  | 90 | 100 | 100 | 100 | 60 | 80 | 85 |  | Foxtail, Giant plant response rating [1, 13]: 90; Plant response rating, Morningglory [3, 17]: 55 |
| CCc1nn(-c2ccc(F)cc2)nc1Oc1ccnc(C(F)(F)F)c1 [Compound 166] | 55 | 90 | 90 | 30 | 30 | 35 | 90 | 100 | 100 | 90 | 10 | 25 | 45 | 90 | Plant response rating, Morningglory [3, 16]: 65 |
| CCCc1nn(-c2ccc(C(F)(F)F)c(F)c2)nc1Oc1ccnc(C(F)(F)F)c1 [Compound 185] | 70 | 85 | 95 | 90 | 98 | 100 | 90 | 100 | 100 | 95 | 55 | 70 | 100 | 90 | Plant response rating, Morningglory ([3]; Postemergence, 250 g ai/ha, scale 0 to 100 (0 no effect, 100 complete control)): 100; Plant response rating, Morningglory [3, 22]: 45 |
| CCOc1nn(-c2ccc(Br)cc2)nc1Cc1ccnc(C(F)(F)F)c1 [Compound 189] |  |  |  |  |  |  | 90 | 100 | 100 |  | 40 | 60 |  | 90 | Plant response rating, Morningglory [3, 22]: 10 |
